Where a name gives a salt, the structure may show the parent alone.
Molecular target: T1, Standard Human Vimentin (Homo sapiens, UniProt P08670)
T1 construct: purchased PROGEN Biotechnik 62015
Assay: Measurement of Kd value between Vimentin and Intal with Biacore (SPR)
Format: binding
Conditions: SPR on Biacore3000; Intal PEG amine immobilized on CM5 chip; Vimentin 0.29 nM to 4.6 μM infused for 5 min
Protocol: Intal PEG amine synthesized as above was immobilized to Biacore CM5 chip (#BR-1000-14), according to a method described in BIAapplications Handbook (published by Biacore).
Control data was obtained by using a chip to which 2-ethanolamine was immobilized by the same way.
As Vimentin, Standard Human Vimentin (cat. No. 62015) purchased from PROGEN Biotechnik was subjected to buffer exchange by Running buffer(0.25 M Sucrose, 25 mM Tris-HCl pH7.5, 0.3 mM sodium N,N-diethyldithiocarbamate, 25 mM urea, 1 mM calcium chloride) and used to measure Kd.
The measurement of Kd was performed by SPR (surface plasmon resonance) spectrum measurement on Biacore3000 (Biacore). The above-mentioned Running buffer was run through the Intal-immobilized CM5 chip prepared by the above-mentioned procedure at 20 μl per min. Thereto, each sample which was prepared by gradually diluting the Vimentin prepared by the above-mentioned procedure (0.29 nM to 4.6 μM) was infused for 5 min., and the obtained SPR spectrum was analyzed by BIAevaluation software Ver.

T1 sequence (P08670 whole entry): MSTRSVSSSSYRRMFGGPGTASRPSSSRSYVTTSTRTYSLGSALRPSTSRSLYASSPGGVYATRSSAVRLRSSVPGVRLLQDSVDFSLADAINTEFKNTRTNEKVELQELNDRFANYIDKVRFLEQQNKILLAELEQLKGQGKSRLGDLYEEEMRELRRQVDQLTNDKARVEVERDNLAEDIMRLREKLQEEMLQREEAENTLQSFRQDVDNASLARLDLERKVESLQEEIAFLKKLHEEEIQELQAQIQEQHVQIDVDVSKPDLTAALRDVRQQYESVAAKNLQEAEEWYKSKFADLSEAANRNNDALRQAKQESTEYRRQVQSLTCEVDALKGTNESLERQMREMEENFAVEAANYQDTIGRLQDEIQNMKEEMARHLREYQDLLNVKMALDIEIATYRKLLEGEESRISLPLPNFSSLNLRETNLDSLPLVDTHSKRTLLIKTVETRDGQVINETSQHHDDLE

Kd: 56 nM
SMILES: O=C(O)c1cc(=O)c2c(OCC(O)COc3cccc4oc(C(=O)O)cc(=O)c34)cccc2o1 [Intal, disodium salt of 1,3-bis(2-carboxychromon-5-yloxy)-2-hydroxypropane]

Reference: patent publication US20100094026A1, “METHOD OF SCREENING COMPOUND USEFUL IN TREATING ALLERGIC DISEASE” (REVERSE PROTEOMICS RESEARCH INSTITUTE CO., LTD., priority 2005, published 2010)
